Data: patent publication US20230227476A1, “GALLIUM-SALOPHEN ANTIMICROBIAL COMPOUNDS AND METHODS OF USE THEREOF” (priority 2020, published 2023)
Where “and” joins values, the source holds several entries; their conditions need not be identical. Identical values can stand only once. Entries after “also recorded” stand apart in the source; their conditions may differ.

What was measured:
P. aeruginosa (PiuA) = conditions: cited from earlier work
HasAp [1] = biological target: T1, HasAp (Pseudomonas aeruginosa, UniProt G3XD33); test: Binding affinity to HasAp by fluorescence quenching; conditions: for Kd: read-out: KD (nM), binding affinities of ligands to HasAp, fluorescence quenching, 1 μM apo-HasAp, 20 mM sodium phosphate pH 7.4, 25° C.; for binding to HasAp weaker than heme: relative to heme
T1 sequence (G3XD33 entry or part of it): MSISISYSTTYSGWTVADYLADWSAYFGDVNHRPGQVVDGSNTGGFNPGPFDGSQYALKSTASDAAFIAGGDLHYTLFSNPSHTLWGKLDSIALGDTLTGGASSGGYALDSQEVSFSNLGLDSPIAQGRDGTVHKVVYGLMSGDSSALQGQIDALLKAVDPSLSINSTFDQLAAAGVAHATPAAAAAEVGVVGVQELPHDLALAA
Method: Binding Affinity Determination by Fluorescence Quenching. Binding affinities were determined on an ISS K2 multifrequency fluorometer in L-format using 1 cm quartz cuvettes. To a 1 μM solution of apo-HasAp in 20 mM sodium phosphate buffer (pH 7.4, 25° C.) was titrated ligand of interest. Emission spectra were recorded (300-500 nm) following excitation at 295 nm. The decrease in maximum emission was plotted against the ligand concentration (accounting for dilution) and fit to one-site binding using GraphPad Prism 8.
Determine binding affinities (KD) by FQ. KD values of all synthesized compounds are calculated by FQ using previously described methods. Binding affinities are determined in a final volume of 200 μL in black flat-bottom 96-well plates using microplate reader. HasAp concentration is kept at 1.0 μM in Tris-HCl buffer (20 mM, pH 8.0). Inhibitors solvated in DMSO are added across a concentration range of 0.01 to 100 μM. The HasAp excitation (295 nm) emission spectrum is recorded from 300-500 nm. The KD values are calculated from plots of total binding vs. ligand concentration, where total binding corresponds to the fraction of binding sites represented by the decrease in fluorescence at the maximum emission (332 nm). All experiments are performed in triplicate.

[2] = system: Has signaling cascade (hasR promoter); test: hasR-lacZ β-galactosidase transcriptional reporter assay; format: cell-based, Pseudomonas aeruginosa; conditions: for transcriptional activation of the hasR promoter (Has signaling): 1 μM pre-formed HasAp complex, relative to heme (holo-HasAp)
Method: Transcriptional Reporter Assay. The chromosomal fusions of the PhasR-lacZ and promoterless lacZ gene were previously constructed and used to report on transcriptional activation of the Has signaling cascade. For all β-gal assays, strains were grown overnight in 50 mL LB broth with shaking at 37° C. Cells were harvested by centrifugation and resuspended in M9 media. Strains were then inoculated at A600=0.05 in triplicate in 25 mL of M9 minimal medium and cultured for 3 h to deplete bacterial iron stores. Growth cultures were then supplemented with 1 μM of either holo-HasAp, GaPPIX-HasAp, FeSal-HasAp or GaSal-HasAp. Aliquots (1 mL) at 0 (just prior to supplementation), 2 and 5 h post supplementation were harvested and assayed for […] activity as described previously.
Testing new GaSal analogs (KD<1 μM) for inhibition of heme sensing by transcriptional reporter assays. Transcriptional reporter assays to determine inhibition of the dependent CSS cascade are performed. It was previously shown that GaSal-HasAp inhibits transcriptional activation of the has operon (FIG. 10B). Furthermore, as the deletion of hasR attenuates virulence, inhibition of the signaling pathway combined with decreased heme uptake is a viable therapeutic strategy. PAO1 hasR-lacZ cultures are grown under iron limiting conditions in defined media (M9 or SSM) pelleted and washed to remove exogenous HasAp. Cells are resuspended to a final OD600 of 0.05 and supplemented with 1.0 μM HasAp reconstituted with heme or selected GaSal derivatives. Samples are removed at various times (0.5-5 h) and assayed for β-Gal activity and corrected for differences in OD600. Competition assays are also performed in the presence of varying heme and salophen concentrations.

[3] = system: P. aeruginosa PAO1 and mutants; test: Growth curves / antibacterial activity in M9 minimal medium; format: cell-based, Pseudomonas aeruginosa; conditions: M9 minimal media, 96-well plate
Method: Growth Curves. P. aeruginosa strains were grown overnight in 50 mL LB Broth with shaking at 37° C. Cells were harvested by centrifugation and resuspended in M9 minimal medium. Strains were then inoculated at A600=0.05 in 10 mL M9 minimal medium and grown for 3 h to deplete bacterial iron stores. Cultures were then plated in 96-well plates (Costar clear, flat-bottom with lid, Corning Inc) at A600≈0.05 to a final volume of 200 μL in M9 medium. Supplements (2 μL) were added as 100× stock solutions. Growth curves were recorded at 600 nm with a Biotek Synergy™ HT plate reader over 16 h of growth with shaking at 37° C. To account for background absorbance, blank wells were prepared with the same supplements but only M9 medium without culture. The blank wells were subtracted from the average of three growth wells per condition.

HasAp [4] = biological target: T1, HasAp; test: Circular dichroism thermal denaturation of HasAp; conditions: circular dichroism at 222 nm, 10 μM HasAp
Method: Circular Dichroism. Circular dichroism experiments were performed on a Jasco J-810 spectropolarimeter using 1 mm quartz cuvettes. All samples were recorded with 10 μM HasAp in 10 mM potassium phosphate (pH 7.4) at 25° C. from 190 to 260 nm at a scan rate of 50 nm/min, with each spectrum representing 5 accumulations. Data were acquired at […] resolution and 10 nm bandwidth. The mean residue ellipticity (degrees cm^2 dmol^−1) was calculated using CDPRO software as recommended by Jasco. Thermal denaturation studies were performed over a temperature range of 20-90° C. at 222 nm. Melting temperatures were determined by fitting denaturation data to a Boltzmann-Sigmoidal distribution in GraphPad Prism 8.

HasAp [5] = test: Saturation transfer difference NMR in PAO1 ΔhasAp supernatant; format: binding, Pseudomonas aeruginosa; conditions: 1H NMR, 24 hr
Method: (§1) Saturation Transfer Difference NMR. PAO1 ΔhasAp was cultured overnight from a single colony in LB Broth. The cells were harvested by centrifugation and resuspended in M9 Minimal Media. 10 mL of M9 were inoculated at A600˜0.05 and grown for 3 h. Cell-free supernatant was obtained by centrifugation and subsequent filter-sterilization by a […] syringe filter. Supernatant was then used as the solvent for subsequent STD experiments. Final sample volume contained 600 μL of supernatant with or without 10 μM HasAp (as a negative control) and 5% D2O for solvent locking.
(§2) The STD experiments were performed at 25° C. on an Agilent DD2 500 MHz spectrometer. The vendor supplied pulse sequences, dpfgse_satxfer.c was used, the on- and off-resonance fids are subtracted in-place through phase-cycling, to yield only the difference fid. Selective saturation was performed for 2.5 s and consisted of 50 ms Gaussian pulses separated by a 1-ms delay at a field strength of 50 Hz. […]
(§3) Determine the binding mode of GaSal and top derivatives by STD-, ^1H-^15N HSQC-NMR, and HDX-MS. […] Following incubation (4 h) 4,4-dimethyl-4-silapentane-1-sulfonic acid (DSS, 3 μL in D20) is added as internal standard and spectra recorded as reported. […] Combined chemical shift differences between the apo and each of the titration points are calculated using the following equation: […]

HasAp [6] = biological target: T1, HasAp; test: as above; format: binding; conditions: GaSal 1 mM, HasAp 10 μM, PAO1 ΔhasAp supernatant
Method: as §1, §2, §3

Compound | Kd (HasAp [1]) | binding to HasAp weaker than heme (HasAp [1]) [fold] | transcriptional activation of the hasR promoter (Has signaling) [2] | melting temperature of HasAp (HasAp [4]) [°C] | other results
CC(C)(O/N=C(\C(=O)N[C@@H]1C(=O)N2C(C(=O)[O-])=C(C[N+]3(CCNC(=O)c4ccc(O)c(O)c4Cl)CCCC3)CS[C@H]12)c1csc(N)n1)C(=O)O [Cefiderocol] | – | – | – | – | resistance rates (P. aeruginosa (PiuA); at 10×MIC): < 7×10^−9; increase in MIC (P. aeruginosa (PiuA); mutations with a deficiency in PiuA): ~20 fold
Oc1ccccc1C=Nc1ccccc1N=Cc1ccccc1O.[Fe+3] [FeSal, FeSal Chloride] | 1100 nM and 1050 nM | ~3 | inhibited the holo-HasAp activation of the cell surface signaling cascade; also recorded: inhibition of transcriptional activation relative to heme or GaPPIX; also recorded: decreased transcriptional activation relative to heme | – | –
C=CC1=C(C)c2cc3[nH]c(cc4nc(cc5[nH]c(cc1n2)c(C)c5CCC(=O)O)C(CCC(=O)O)=C4C)c(C)c3C=C.[Ga+3] [GaPPIX, Gallium protoporphyrin IX] | 280 ± 30 nM | – | no inhibition of transcriptional activation relative to heme; also recorded: increased (2 h) or similar transcriptional activation to heme | – | growth of P. aeruginosa PAO1 [3]: inhibits growth
Oc1ccccc1C=Nc1ccccc1N=Cc1ccccc1O.[Ga+3] [GaSal, GaSalophen Nitrate] | 1110 ± 220 nM | ~3 | inhibited the holo-HasAp activation of the cell surface signaling cascade; also recorded: inhibition of transcriptional activation relative to heme or GaPPIX; also recorded: decreased transcriptional activation relative to heme | 65 | stability in PAO1 ΔhasAp supernatant (HasAp [5]): still intact after 24 hr; STD NMR saturation transfer from HasAp (HasAp [6]): saturation transfer among all protons of GaSal; β-galactosidase production ([2]; at 5 hours): increased β-galactosidase when compared to FeSal
C=CC1=C(C)c2cc3[nH]c(cc4nc(cc5[nH]c(cc1n2)c(C)c5CCC(=O)O)C(CCC(=O)O)=C4C)c(C)c3C=C.[Fe+3] [Heme] | 350 ± 50 nM | – | – | > 90 | –
